# Key:
# [1] = test system: RORγt; experiment: Binding of transcription/co-factors to RORγt or RORE oligonucleotides after treatment (data not shown); type: cell-based
# [2] = test system: RORγt expression; experiment: RORγt expression in cultures (data not shown); type: cell-based; details: preliminary evidence
# [3] = test system: HaCaT keratinocytes; experiment: IL-17-driven HaCaT keratinocyte responses (Th17 supernatants or spiked cytokines), qRT-PCR; type: cell-based, human; details: supernatants of Th17 cells treated with 10 μM vs 0.13 nM, 24 h
# Procedure: The HaCaT keratinocyte cell line was purchased from AddexBio and was maintained in RPMI 1640 medium supplemented with Glutamax, Penicillin/Streptomycin (all from Gibco) and 10% FCS (PAA). Normal primary human epidermal keratinocytes (NHEKs) were purchased from Lonza and PromoCell, respectively. Cells were cultured in Keratinocyte basal growth medium (KBM; Lonza) containing KGM2 growth supplements including insulin, human epidermal growth factor, bovine pituitary extract, hydrocortisone, epinephrine, transferrin, and gentamicin/amphotericin B (Lonza). HaCaT cells were incubated in a 96-well-microtiter plate (2 × 10^4 cells/well) with Th17 cytokine-containing supernatants obtained from total CD4^+ T-cells that were polarized for 72 h in the presence of anti-CD3/CD28 antibodies and a Th17 polarization cocktail as described above. […] Cytokine concentrations in supernatants were determined from representative experiments and they contained approximately 150 pg/ml or 600 pg/ml of IL-17 in 10 μM or in 0.13 nM treated samples, respectively. The TNF-α concentration was similar in supernatants exposed to low or high Cpd A concentrations and was 4 ng/ml. To study the impact of the IL-17 cytokine, IL-17 in the supernatants and in the spike-in cocktails was neutralized by a 0.5 h pre-incubation with an IL-17-specific antibody [0.75 μg/ml; Secukinumab (Cosentyx®, Novartis)]. All cultures were incubated in triplicates and after a 24 h incubation period, HaCaT cells (6 × 10^4 cells/sample) and NHEKs (1 × 10^5 cells/sample) were harvested and further processed for qRT-PCR analysis.
# Total RNA from human Th17 cells (6 × 10^5 cells), RORγt-RORE HUT78 cells (4 × 10^5 cells) and HaCaT cells (6 × 10^4 cells) was extracted using RNeasy kit including a DNAse I digestion step according to the manufacturer‘s protocol (Qiagen). Frozen skin biopsies (8 mm punches) were resuspended in RLT buffer (Qiagen) containing 1% β-mercaptoethanol and homogenized using a Precellys-Cryolys device (Bertin Instruments) according to the manufacturer's instructions. cDNAs were prepared with the High Capacity cDNA Reverse Transcription Kit (Applied Biosystems). Quantitative RT-PCR analysis was performed using a TaqManViiA7 (Applied Biosystems). All runs were accompanied by the internal control gene human β-glucoronidase (Gus) (431088E). The samples were run in triplicate or in hexaplicate and normalized to Gus using the ΔΔCt method to provide arbitrary units representing relative expression levels. The following Taqman probes were used for RT-PCR (Thermo Scientific): RORC (Hs01076112_m1), IL17A (Hs00936345_m1), IL22 (Hs01574154_m1), IL26 (Hs00218189_m1), IL23R (Hs00332759_m1), CCR6 (Hs00218189_m1), NFKBIZ (Hs00355476_m), DEFB4A (Hs00823638_m1), IL36G (Hs00219742_m1), and CCL20 (Hs00355476_m1).
# [4] = test system: total CD4+ T-cells; experiment: Th0, Th1, Th2 polarization, signature cytokine ELISA; type: cell-based, human
# Procedure: Total, naive and memory CD4^+ T cells were isolated from Peripheral blood mononuclear cells (PBMCs) from healthy volunteers by density gradient centrifugation using Ficoll Paque (GE). Total, naive or memory CD4^+ T-cells were prepared by immunomagnetic separation using the respective CD4^+ T-cell enrichment kits resulting in untouched highly purified subsets (EasySep™, Stem Cell). Purity was assessed by flow cytometry and was between 95 and 98% for the total CD4^+ T-cells. The purity of naive (CD45RA^+CD45RO^−) and memory (CD45RA^−CD45RO^+) CD4^+T-cells ranged between 95 and 98%, respectively. For T-cell stimulation experiments, cells were treated as previously published ([44]). Briefly, T-cells were stimulated with plate-bound monoclonal antibodies against CD3 (1 μg/ml, clone OKT-3, BioXcell) and CD28 (1 μg/ml, clone CD28.2, BioLegend). For Th17 polarization assays, IL-6 (20 ng/ml), TGF-β1 (5 ng/ml), IL-1β (10 ng/ml), and IL-23 (10 ng/ml) were added. For Th1 polarization assays, IL-12 (10 ng/ml) and anti-IL-4 antibody (5 μg/ml), for Th2 polarizations, IL-4 (10 ng/ml) and anti-IFN-γ antibody (5 μg/ml) were added. For Th0 polarization assays, cells were only stimulated with CD3 and CD28 antibodies. Supernatants were collected after 3 or 7 days of incubation for total or naive/memory CD4^+ T-cell polarizations, respectively. Cytokine concentrations were quantified by ELISA according to the manufacturer's instructions (eBioscience or BioLegend).
compound,measurement,setting,value
"Cc1ccc(C(=O)Nc2cn3ccnc3c(CN3CCN(c4noc(C(C)(C)C)n4)[C@@H](C)C3)c2C)cn1 [Cpd A, (S)-N-(8-((4-(5-(tert-butyl)-1,2,4-oxadiazol-3-yl)-3-methylpiperazin-1-yl)methyl)-7-methylimidazo[1,2-a]pyridin-6-yl)-6-methylnicotinamide]","binding of TAZ, steroid receptor co-activators, p300, HIF-1α, Runx to RORγt or RORE oligonucleotides",[1],remained intact
same,RORγt expression in cultures,[2],did not modify
same,"IL-17 signature genes (NFKBIZ, DEFB4A, CCL20, IL36G) in HaCaT",[3],marked reduction
same,Th2 signature cytokine production (IL-13),[4]; IL-4 and anti-IFN-γ antibody,did not have any impact
same,Th1 signature cytokine production (IFN-γ),[4]; IL-12 and anti-IL-4 antibody,did not have any impact
same,Th0 signature cytokine production (IL-2),[4]; anti-CD3 plus anti-CD28 only,did not have any impact

# Reference: article PMC6443933, “Antagonizing Retinoic Acid-Related-Orphan Receptor Gamma Activity Blocks the T Helper 17/Interleukin-17 Pathway Leading to Attenuated Pro-inflammatory Human Keratinocyte and Skin Responses” (Frontiers in Immunology, 2019)
